Test results: PubChem BioAssay AID1963421 (Molecular Pharmacology Branch, DTP, NCI, 2024)
Values joined by “and” are separate entries in the source; they are usually repeats but may differ in a detail not shown here. Equal entries are not always repeated.

Test system: 519858-162-T-J1-PDC complex spheroid growth, % test/control
Assay: Anticancer human tumor 519858-162-T-J1-PDC patient-derived colon adenocarcinoma cell line growth inhibition [Asc]
Details: for viability, T/C: stronger effect = lower value
Summary of the method: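 Concentration series start at each agent's clinical Cmax, or at 10 microM when none is established, and drop in half-log steps; agents are applied alone or together to complex spheroids built with HUVEC and hMSC.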

[1] = curve of first compound, second compound 0.0316 µM
[2] = curve of first compound, second compound 0.1 µM
[3] = curve of first compound, second compound 0.316 µM
[4] = curve of first compound, second compound 1 µM
[5] = second compound 0.0316 µM, first compound 0.0316 µM
[6] = second compound 0.0316 µM, first compound 0.1 µM
[7] = second compound 0.1 µM, first compound 0.0316 µM
[8] = second compound 0.1 µM, first compound 0.1 µM
[9] = second compound 0.316 µM, first compound 0.0316 µM
[10] = second compound 0.316 µM, first compound 0.1 µM
[11] = second compound 1 µM, first compound 0.0316 µM
[12] = second compound 1 µM, first compound 0.1 µM
[13] = curve of first compound, second compound 0.00316 µM
[14] = curve of first compound, second compound 0.01 µM
[15] = second compound 0.00316 µM, first compound 0.0316 µM
[16] = second compound 0.00316 µM, first compound 0.1 µM
[17] = second compound 0.00316 µM, first compound 0.316 µM
[18] = second compound 0.00316 µM, first compound 1 µM
[19] = second compound 0.00316 µM, first compound 3.16 µM
[20] = second compound 0.00316 µM, first compound 10 µM
[21] = second compound 0.01 µM, first compound 0.0316 µM
[22] = second compound 0.01 µM, first compound 0.1 µM
[23] = second compound 0.01 µM, first compound 0.316 µM
[24] = second compound 0.01 µM, first compound 1 µM
[25] = second compound 0.01 µM, first compound 3.16 µM
[26] = second compound 0.01 µM, first compound 10 µM
[27] = second compound 0.0316 µM, first compound 0.316 µM
[28] = second compound 0.0316 µM, first compound 1 µM
[29] = second compound 0.0316 µM, first compound 3.16 µM
[30] = second compound 0.0316 µM, first compound 10 µM
[31] = second compound 0.1 µM, first compound 0.316 µM
[32] = second compound 0.1 µM, first compound 1 µM
[33] = second compound 0.1 µM, first compound 3.16 µM
[34] = second compound 0.1 µM, first compound 10 µM
[35] = second compound 0.316 µM, first compound 0.316 µM
[36] = second compound 0.316 µM, first compound 1 µM
[37] = second compound 0.316 µM, first compound 3.16 µM
[38] = second compound 0.316 µM, first compound 10 µM
[39] = second compound 1 µM, first compound 0.316 µM
[40] = second compound 1 µM, first compound 1 µM
[41] = second compound 1 µM, first compound 3.16 µM
[42] = second compound 1 µM, first compound 10 µM
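Further: seven day drug exposure begun three days after spheroid seeding.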
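Wherever viability, T/C is given: 100% = DMSO vehicle wells and lower values mean less viable spheroid.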

Q: `NC1CCC(NC2CC2c2ccccc2)CC1` (stereo not drawn) + Cc1c(S(C)(=O)=O)c(-c2cc(F)cc(N3CCN(c4ccc(NS(=O)(=O)c5ccc(NC(CCN6CCC(C(=O)OCCCP(=O)(O)O)CC6)CSc6ccccc6)c(S(=O)(=O)C(F)(F)F)c5)cc4)CC3)c2)c(-c2ccc(Cl)cc2)n1C(C)C was tested. Which IC50 [1] did it give?
A: Its IC50 is > 0.1 µM.

Q: What about the IC50 [2] of the same compound?
A: Its IC50 is > 0.1 µM.

Q: And the IC50 [3]?
A: Its IC50 is > 0.1 µM.

Q: And the IC50 [4]?
A: The IC50 was > 0.1 µM.

Q: And the IC50 (curve of first compound, second compound 3.16 µM)?
A: The IC50 was > 0.1 µM.

Q: What about the IC50 (curve of first compound, second compound 10 µM) of the same compound?
A: The IC50 was > 0.1 µM.

Q: What about the viability, T/C (second compound 0.0316 µM, first compound 0.000316 µM) of the same compound?
A: Its viability, T/C is 106%.

Q: And the viability, T/C (second compound 0.0316 µM, first compound 0.001 µM)?
A: The viability, T/C was 128%.

Q: And the viability, T/C (second compound 0.0316 µM, first compound 0.00316 µM)?
A: The viability, T/C was 116%.

Q: What about the viability, T/C (second compound 0.0316 µM, first compound 0.01 µM) of the same compound?
A: The viability, T/C was 137%.

Q: And the viability, T/C [5]?
A: The viability, T/C was 115%.

Q: What about the viability, T/C [6] of the same compound?
A: The viability, T/C was 70.6%.

Q: What about the viability, T/C (second compound 0.1 µM, first compound 0.000316 µM) of the same compound?
A: Its viability, T/C is 134%.

Q: And the viability, T/C (second compound 0.1 µM, first compound 0.001 µM)?
A: The viability, T/C was 122%.

Q: And the viability, T/C (second compound 0.1 µM, first compound 0.00316 µM)?
A: The viability, T/C was 92.7%.

Q: What about the viability, T/C (second compound 0.1 µM, first compound 0.01 µM) of the same compound?
A: Its viability, T/C is 94.8%.

Q: And the viability, T/C [7]?
A: The viability, T/C was 79.9%.

Q: What about the viability, T/C [8] of the same compound?
A: Its viability, T/C is 98.3%.

Q: What about the viability, T/C (second compound 0.316 µM, first compound 0.000316 µM) of the same compound?
A: The viability, T/C was 65.3%.

Q: And the viability, T/C (second compound 0.316 µM, first compound 0.001 µM)?
A: Its viability, T/C is 109%.

Q: And the viability, T/C (second compound 0.316 µM, first compound 0.00316 µM)?
A: Its viability, T/C is 142%.

Q: What about the viability, T/C (second compound 0.316 µM, first compound 0.01 µM) of the same compound?
A: The viability, T/C was 94%.

Q: What about the viability, T/C [9] of the same compound?
A: The viability, T/C was 85.5%.

Q: What about the viability, T/C [10] of the same compound?
A: Its viability, T/C is 107%.

Q: What about the viability, T/C (second compound 1 µM, first compound 0.000316 µM) of the same compound?
A: The viability, T/C was 96.3%.

Q: What about the viability, T/C (second compound 1 µM, first compound 0.001 µM) of the same compound?
A: Its viability, T/C is 74.7%.

Q: What about the viability, T/C (second compound 1 µM, first compound 0.00316 µM) of the same compound?
A: Its viability, T/C is 99.4%.

Q: And the viability, T/C (second compound 1 µM, first compound 0.01 µM)?
A: The viability, T/C was 60.3%.

Q: What about the viability, T/C [11] of the same compound?
A: The viability, T/C was 134%.

Q: And the viability, T/C [12]?
A: Its viability, T/C is 77.9%.

Q: And the viability, T/C (second compound 3.16 µM, first compound 0.000316 µM)?
A: The viability, T/C was 72.6%.

Q: And the viability, T/C (second compound 3.16 µM, first compound 0.001 µM)?
A: Its viability, T/C is 113%.

Q: And the viability, T/C (second compound 3.16 µM, first compound 0.00316 µM)?
A: Its viability, T/C is 97.3%.

Q: And the viability, T/C (second compound 3.16 µM, first compound 0.01 µM)?
A: Its viability, T/C is 83.6%.

Q: What about the viability, T/C (second compound 3.16 µM, first compound 0.0316 µM) of the same compound?
A: The viability, T/C was 115%.

Q: What about the viability, T/C (second compound 3.16 µM, first compound 0.1 µM) of the same compound?
A: Its viability, T/C is 116%.

Q: And the viability, T/C (second compound 10 µM, first compound 0.000316 µM)?
A: Its viability, T/C is 69.7%.

Q: And the viability, T/C (second compound 10 µM, first compound 0.001 µM)?
A: Its viability, T/C is 79%.

Q: And the viability, T/C (second compound 10 µM, first compound 0.00316 µM)?
A: The viability, T/C was 60.6%.

Q: And the viability, T/C (second compound 10 µM, first compound 0.01 µM)?
A: Its viability, T/C is 77.1%.

Q: What about the viability, T/C (second compound 10 µM, first compound 0.0316 µM) of the same compound?
A: Its viability, T/C is 55.4%.

Q: And the viability, T/C (second compound 10 µM, first compound 0.1 µM)?
A: Its viability, T/C is 69.9%.

Q: Which results are given for `CCN1CCN(Cc2ccc(Nc3ncc(F)c(-c4cc(F)c5nc(C)n(C(C)C)c5c4)n3)nc2)CC1`?
A: viability, T/C (compound 0.00316 µM): 112% and 91.6% and 83.9%; viability, T/C (compound 0.01 µM): 104% and 98.3% and 105%; viability, T/C (compound 0.0316 µM): 91% and 73.6% and 115%; viability, T/C (compound 0.1 µM): 87.1% and 75.9% and 100%; viability, T/C (compound 0.316 µM): 73.9% and 61.4% and 72.9%; viability, T/C (compound 1 µM): 62% and 46.7% and 81.3%; IC50 (curve of compound): > 1 µM and 0.793 µM

Q: Which results are given for `C#Cc1c(F)ccc2cc(O)cc(-c3ncc4c(N5CC6CCC(C5)N6)nc(OCC56CCCN5CC(F)C6)nc4c3F)c12` (stereo not drawn) + CNC(C)C(=O)NC1CN(S(=O)(=O)c2cccc(S(=O)(=O)N3CCC4CCC(C(=O)NC(c5ccccc5)c5ccccc5)N4C(=O)C(NC(=O)C(C)NC)C3)c2)CCC2CCC(C(=O)NC(c3ccccc3)c3ccccc3)N2C1=O?
A: IC50 [13]: > 10 µM; IC50 [14]: > 10 µM; IC50 [1]: > 10 µM; IC50 [2]: > 10 µM; IC50 [3]: > 10 µM; IC50 [4]: > 10 µM; viability, T/C [15]: 138%; viability, T/C [16]: 111%; viability, T/C [17]: 99.4%; viability, T/C [18]: 100%; viability, T/C [19]: 82.1%; viability, T/C [20]: 72.1%; viability, T/C [21]: 97.8%; viability, T/C [22]: 91.2%; viability, T/C [23]: 93.6%; viability, T/C [24]: 86.1%; viability, T/C [25]: 81.2%; viability, T/C [26]: 77.3%; viability, T/C [5]: 96.5%; viability, T/C [6]: 82.4%; viability, T/C [27]: 86.3%; viability, T/C [28]: 102%; viability, T/C [29]: 75.2%; viability, T/C [30]: 105%; viability, T/C [7]: 123%; viability, T/C [8]: 123%; viability, T/C [31]: 117%; viability, T/C [32]: 97.6%; viability, T/C [33]: 88.1%; viability, T/C [34]: 94.9%; viability, T/C [9]: 78.8%; viability, T/C [10]: 97.6%; viability, T/C [35]: 111%; viability, T/C [36]: 115%; viability, T/C [37]: 87.8%; viability, T/C [38]: 92.2%; viability, T/C [11]: 86.5%; viability, T/C [12]: 93.2%; viability, T/C [39]: 92.2%; viability, T/C [40]: 77.9%; viability, T/C [41]: 112%; viability, T/C [42]: 106%

Q: Which results are given for `O=C(c1cc(Cc2n[nH]c(=O)c3ccccc23)ccc1F)N1CCN(C(=O)C2CC2)CC1` + CNC(C)C(=O)NC1CN(S(=O)(=O)c2cccc(S(=O)(=O)N3CCC4CCC(C(=O)NC(c5ccccc5)c5ccccc5)N4C(=O)C(NC(=O)C(C)NC)C3)c2)CCC2CCC(C(=O)NC(c3ccccc3)c3ccccc3)N2C1=O?
A: IC50 [13]: > 10 µM; IC50 [14]: > 10 µM; IC50 [1]: > 10 µM; IC50 [2]: > 10 µM; IC50 [3]: > 10 µM; IC50 [4]: > 10 µM; viability, T/C [15]: 61.5%; viability, T/C [16]: 57.1%; viability, T/C [17]: 55%; viability, T/C [18]: 66.5%; viability, T/C [19]: 72.8%; viability, T/C [20]: 65.1%; viability, T/C [21]: 127%; viability, T/C [22]: 98.8%; viability, T/C [23]: 103%; viability, T/C [24]: 89.4%; viability, T/C [25]: 114%; viability, T/C [26]: 87%; viability, T/C [5]: 96.9%; viability, T/C [6]: 73.4%; viability, T/C [27]: 91.3%; viability, T/C [28]: 91.1%; viability, T/C [29]: 84.5%; viability, T/C [30]: 88.3%; viability, T/C [7]: 97.9%; viability, T/C [8]: 83.2%; viability, T/C [31]: 89.7%; viability, T/C [32]: 84.9%; viability, T/C [33]: 94.4%; viability, T/C [34]: 76.4%; viability, T/C [9]: 68.4%; viability, T/C [10]: 86.6%; viability, T/C [35]: 117%; viability, T/C [36]: 97.7%; viability, T/C [37]: 100%; viability, T/C [38]: 95%; viability, T/C [11]: 80.7%; viability, T/C [12]: 84.9%; viability, T/C [39]: 106%; viability, T/C [40]: 99.3%; viability, T/C [41]: 78.1%; viability, T/C [42]: 95.3%
